From patent publication US20240252549A1, “COMPOSITIONS AND METHODS TO TRANSFECT, TEST, AND TREAT SKIN CELLS” (The Regents of the University of Michigan, priority 2021, published 2024)
“Also recorded” adds a separate entry of the source.

Experiments:
[1] = test system: IFNK; assay: IFNK mRNA expression in keratinocytes (qRT-PCR); type: cell-based, human; conditions: all KO KCs treated, FIG. 3B
Protocol: (§1) Immortalized keratinocyte cell line, N/TERT1, was used with permission for generation of knock-out (KO) cell lines using non-homologous end joining via CRISPR/Cas9. […] N/TERTs were grown in Keratinocyte-SFM medium (ThermoFisher #17005-042) supplemented with 30 μg/ml bovine pituitary extract, 0.2 ng/ml epidermal growth factor, and 0.3 mM calcium chloride (2).
(§2) CRISPR KO KCs were generated as previously described (3). In brief, Single-guide RNA (sgRNA) target sequence was developed using a web interface for CRISPR design (https://portals.broadinstitute.org/gpp/public/analysis-tools/sgrna-design). Synthetic sgRNA target sequences were inserted into a cloning backbone, pSpCas9 (BB)-2A-GFP (PX458) (Addgene plasmid #48138) and then cloned into competent E. coli (ThermoFisher #C737303). Proper insertion was validated by Sanger sequencing. […] Cells were then genotyped and analyzed by Sanger sequencing.
(§3) RNA extraction, qRT-PCR and RNA-Sequencing were performed following the protocol published earlier (3). […] We used STAR to align RNA-seq reads to the human genome, using annotations of GENCODE as gene model. HTSeq was used to quantify gene expression levels; normalization and differential expression analysis were performed by DESeq2.

[2] = test system: MX1; assay: MX1 (interferon-stimulated gene) mRNA expression in keratinocytes (qRT-PCR); type: cell-based, human; conditions: all KO KCs treated, FIG. 7
Protocol: as §1, §2, §3

SMILES: Nc1ncn([C@H]2C[C@H](O)[C@@H](CO)O2)c(=O)n1 [5-dAza-c]
- IFNK mRNA expression in CRISPR-cas9 generated KO keratinocytes after demethylating agent [1]: Reversal; also recorded: significant increase
- MX1 mRNA expression in CRISPR-cas9 generated KO keratinocytes after demethylating agent [2]: significant increase
